Article PMC6892585 (Bioorganic & medicinal chemistry, 2019)

Tested on: Caco-2 cells

Lucifer yellow [LY]
permeability (Papp): ≤ 1 ×10⁻⁶ cm/s
